Some test systems named below: SF-268 CNS; CCRF-CEM leukemia; SK-OV-3 ovarian; SNB-19 CNS; SW-620 colon; HOP-92 NSCLC; RPMI-8226 leukemia; DU-145 prostate; CAKI-1 renal; SK-MEL-2 melanoma.
Holding throughout (test): DTP human tumour cell line panel, 48 h

SMILES strings stand for the structures. Values joined by “and” are separate entries in the source; they are usually repeats but may differ in a detail not shown here. Equal values may be shown once.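 Results reflect a 48-hour exposure of cells in 96-well plates to compound at five concentrations. Here, GI50 denotes the concentration required for 50% inhibition of growth. The concentration for full growth arrest is given as TGI.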

Consider `CC(C)(Br)C(=O)C(Br)Br`, for which the GI50 with SF-268 CNS was 7.42 µM; in the assay with CCRF-CEM leukemia, 2.72 µM; in the assay with SK-OV-3 ovarian, 32.8 µM; with SW-620 colon it was 5.12 µM; with HOP-92 NSCLC, 4 µM; in the assay with RPMI-8226 leukemia it was 2310 nM and 1140 nM. Moreover, the GI50 in the assay on CAKI-1 renal was 5.21 µM; with SK-MEL-2 melanoma, 5.75 µM. Besides, the TGI with SF-268 CNS was 27.1 µM and 26 µM; in the assay on SK-OV-3 ovarian, 31.3 µM and 69.8 µM; with SNB-19 CNS, 33.9 µM and 59.4 µM; with SW-620 colon, 3.59 µM and 10.4 µM; with HOP-92 NSCLC it was 3.16 µM and 8.12 µM; with RPMI-8226 leukemia, 6.29 µM and 6.22 µM. In addition, the TGI was 70.6 µM with DU-145 prostate; 3.81 µM and 9.43 µM in the assay with CAKI-1 renal; 28.8 µM and 10.8 µM in the assay on SK-MEL-2 melanoma.

In the case of `Cc1cc(C)nc(SC2=C(Nc3cc(Cl)ccc3O)C(=O)N(Cc3ccccc3)C2=O)n1`, the GI50 with SF-268 CNS is 61.2 µM; with CCRF-CEM leukemia, 7.38 µM; in the assay with SK-OV-3 ovarian it was > 160 µM; with SNB-19 CNS, > 160 µM; in the assay with SW-620 colon, 53 µM; in the assay with HOP-92 NSCLC it was 21.9 µM. Moreover, the GI50 was 3570 nM in the assay on RPMI-8226 leukemia, 39 µM in the assay with DU-145 prostate, > 160 µM with CAKI-1 renal and 49.5 µM with SK-MEL-2 melanoma. Moreover, the TGI in the assay on SF-268 CNS is > 160 µM; in the assay on CCRF-CEM leukemia, 124 µM; in the assay on SK-OV-3 ovarian it was > 160 µM; in the assay with SNB-19 CNS, > 160 µM; in the assay on SW-620 colon, > 160 µM; in the assay with HOP-92 NSCLC, 68.5 µM. For the same molecule, the TGI in the assay on RPMI-8226 leukemia is 25.7 µM; in the assay on DU-145 prostate, 108 µM; in the assay on CAKI-1 renal it was > 160 µM; in the assay with SK-MEL-2 melanoma, > 160 µM.

Values taken from PubChem BioAssay (NCI).
